The series is described as follows: recombinant UMI read abundance after kanamycin selection (control-corrected) (log10(CPM+1)); higher = more efficient recombination; extreme values may be limits of the assay; sequences stand for … in AGTGCAGAGAAAATCGGCCAGTTTTCTCTGCCTGCAGTCCGCATGCCGTGGGACCCCTTGGGTTCTAACCTGTTGCCTAGATTTATGCAGCGGACTGCCTTTCTCCCAAAGTGATAAACCGG…AGGTTGGTTTCACT; site = the 11-nt donor. A digest of the protocol:
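Values, expressed as log10(CPM+1), derive from recombinant UMI counts converted to CPM, averaged across replicates and scaled by control-derived factors. Plating was with IPTG (0.07 mM) plus kanamycin or unselected, two replicates each. The screen pooled donor and donor-binding-loop pairs for the IS621 bridge recombinase in Escherichia coli.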
For “GGATGCTCATGGACCGGTTTTCCCGGTAATCCGTATTTGCT (site GGATGCTCTAG)”, the “recombinant UMI read abundance (log10)” value stood at 3. Next, “GGATTTACATGGACCGGTTTTCCCGGTAATCCGTATTTGAG (site GGATTTACTCT)”: 0.713; “GGCAAATCATGGACCGGTTTTCCCGGTAATCCGTATTTGCT (site GGCAAATCTAG)”: 0; “GGCAACCCATGGACCGGTTTTCCCGGTAATCCGTATTTGTT (site GGCAACCCTAA)”: 0.0163. The result for “GGCAACCCATGGACCGGTTTTCCCGGTAATCCGTATTTGTT (site GGCCACCCTAA)” reads 0.0118; that for “GGCAACCCATGGACCGGTTTTCCCGGTAATCCGTATTTGTT (site GGCGACCCTAA)”, 0.0135; that for “GGCAACCCATGGACCGGTTTTCCCGGTAATCCGTATTTGTT (site GGCTACCCTAA)”, 0.0252. Regarding “GGCAATACATGGACCGGTTTTCCCGGTAATCCGTATTTGAA (site GGCAATACTTT)”, the “recombinant UMI read abundance (log10)” value worked out at 0.862.

“GGCAATACATGGACCGGTTTTCCCGGTAATCCGTATTTGAA (site GGCAATCCTTT)”: the “recombinant UMI read abundance (log10)” value came out at 0.00332. For the sequence “GGCAATACATGGACCGGTTTTCCCGGTAATCCGTATTTGAA (site GGCAATGCTTT)”, the “recombinant UMI read abundance (log10)” value was determined as 0. The result for “GGCAATACATGGACCGGTTTTCCCGGTAATCCGTATTTGAA (site GGCAATTCTTT)” reads 0. The result for “GGCAATCCATGGACCGGTTTTCCCGGTAATCCGTATTTGAA (site AGCAATCCTTT)” reads 0.00634; that for “GGCAATCCATGGACCGGTTTTCCCGGTAATCCGTATTTGAA (site CGCAATCCTTT)”, 0. Next, “GGCAATCCATGGACCGGTTTTCCCGGTAATCCGTATTTGAA (site GACAATCCTTT)”: 0; “GGCAATCCATGGACCGGTTTTCCCGGTAATCCGTATTTGAA (site GCCAATCCTTT)”: 0; “GGCAATCCATGGACCGGTTTTCCCGGTAATCCGTATTTGAA (site GGAAATCCTTT)”: 0.

In the case of “GGCAATCCATGGACCGGTTTTCCCGGTAATCCGTATTTGAA (site GGCAAACCTTT)”, the “recombinant UMI read abundance (log10)” value was 0.

With “GGCAATCCATGGACCGGTTTTCCCGGTAATCCGTATTTGAA (site GGCAACCCTTT)”, the “recombinant UMI read abundance (log10)” value is 0.00936. With “GGCAATCCATGGACCGGTTTTCCCGGTAATCCGTATTTGAA (site GGCAAGCCTTT)”, the “recombinant UMI read abundance (log10)” value is 0.0191. The result for “GGCAATCCATGGACCGGTTTTCCCGGTAATCCGTATTTGAA (site GGCAATACTTT)” reads 0.0044; that for “GGCAATCCATGGACCGGTTTTCCCGGTAATCCGTATTTGAA (site GGCAATCCTAT)”, 0. “GGCAATCCATGGACCGGTTTTCCCGGTAATCCGTATTTGAA (site GGCAATCCTCT)”: the “recombinant UMI read abundance (log10)” value was determined as 0.0139.

On to “GGCAATCCATGGACCGGTTTTCCCGGTAATCCGTATTTGAA (site GGCAATCCTGT)”, for which the “recombinant UMI read abundance (log10)” value stood at 0. Next, “GGCAATCCATGGACCGGTTTTCCCGGTAATCCGTATTTGAA (site GGCAATCCTTA)”: 0.00549; “GGCAATCCATGGACCGGTTTTCCCGGTAATCCGTATTTGAA (site GGCAATCCTTC)”: 0.00387; “GGCAATCCATGGACCGGTTTTCCCGGTAATCCGTATTTGAA (site GGCAATCCTTG)”: 0. Next, “GGCAATCCATGGACCGGTTTTCCCGGTAATCCGTATTTGAA (site GGCAATCCTTT)”: 0.434; “GGCAATCCATGGACCGGTTTTCCCGGTAATCCGTATTTGAA (site GGCAATGCTTT)”: 0.00508; “GGCAATCCATGGACCGGTTTTCCCGGTAATCCGTATTTGAA (site GGCAATTCTTT)”: 0. Next, “GGCAATCCATGGACCGGTTTTCCCGGTAATCCGTATTTGAA (site GGCACTCCTTT)”: 0; “GGCAATCCATGGACCGGTTTTCCCGGTAATCCGTATTTGAA (site GGCAGTCCTTT)”: 0; “GGCAATCCATGGACCGGTTTTCCCGGTAATCCGTATTTGAA (site GGCATTCCTTT)”: 0.0126. For “GGCAATCCATGGACCGGTTTTCCCGGTAATCCGTATTTGAA (site GGCCATCCTTT)”, the “recombinant UMI read abundance (log10)” value turned out to be 0.0223.

For “GGCAATCCATGGACCGGTTTTCCCGGTAATCCGTATTTGAA (site GGCGATCCTTT)”, the “recombinant UMI read abundance (log10)” value came to 0.

(Values after the supplement of paper PMC11208160.)
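Note: IS621 bridge recombinase in Escherichia coli cells against a fixed T5 target plasmid.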
